Consider 31 compounds from patent US8778919B2, “Cyclic anilino—pyridinotriazines” (Janssen Pharmaceutica NV, priority 2005, dated 2014).

What all share (format): biochemical
The target of test [1] is GSK-3α (Homo sapiens, UniProt P49840). The experiment in a line: GSK-3 kinase assay (C1), GSK-3α. To be noted: 1 μM ATP, read-out: C1 Score α. As for the experimental part: (§1) In vitro GSK-3 assays were performed at room temperature in a 100 μl reaction volume of 25 mM Tris (pH 7.4) containing 10 mM MgCl2.6H2O, 1 mM DTT, 0.1 mg/ml BSA, 5% glycerol, 5.7 ng/μl GSK-3β or 0.25 ng/μl GSK-3α, 5 μM biotinylated CREB peptide, 1 μM ATP, 0.85 μCi/ml ^33P-ATP and a suitable amount of a test compound. After one hour, the reaction was terminated by adding 70 μl of Stop mix (0.1 mM ATP, 5 mg/ml streptavidin coated PVT SPA beads, pH 11.0). The beads were allowed to settle overnight and the radioactivity attached to the beads was counted in a microtiter plate scintillation counter and compared with the results obtained in a control experiment (without the presence of a test compound) in order to determine the percentage of GSK-3 inhibition. The IC50 value, i.e. the concentration (M) of the test compound at which 50% of GSK-3 is inhibited, was calculated from the dose response curve obtained by performing the above-described GSK-3 assay in the presence of different amounts of the test compound. Score 1=pIC50 value<6, Score 2=pIC50 value from 6-7, Score 3=pIC50 value from 7-8, Score 4=pIC50 value>8.
Sequence of GSK-3α (P49840 whole entry, species assumed): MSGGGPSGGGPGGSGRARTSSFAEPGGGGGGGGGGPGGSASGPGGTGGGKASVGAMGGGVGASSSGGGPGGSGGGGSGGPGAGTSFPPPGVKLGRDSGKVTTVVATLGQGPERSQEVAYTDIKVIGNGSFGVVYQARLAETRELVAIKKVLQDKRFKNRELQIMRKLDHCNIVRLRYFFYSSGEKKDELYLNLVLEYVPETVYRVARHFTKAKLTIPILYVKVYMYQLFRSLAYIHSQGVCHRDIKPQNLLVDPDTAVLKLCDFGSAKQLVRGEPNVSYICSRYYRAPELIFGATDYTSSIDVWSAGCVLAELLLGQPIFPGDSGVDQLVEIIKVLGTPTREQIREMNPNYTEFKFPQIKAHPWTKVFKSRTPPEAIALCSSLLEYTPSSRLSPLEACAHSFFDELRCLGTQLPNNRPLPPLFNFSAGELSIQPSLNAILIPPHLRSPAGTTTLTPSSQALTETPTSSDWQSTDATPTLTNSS

Test [2] has as its target GSK-3β (Homo sapiens, UniProt P49841). The experiment in a line: GSK-3 kinase assay (C1), GSK-3β. To be noted: 1 μM ATP, read-out: C1 Score β. As to the method:
as §1

In test [3] the target is CDK1/cyclinB (h) (Homo sapiens, UniProt P06493). As to the kind of experiment: Kinase profiling C3.2 CDK1/cyclinB human. To be noted: test concentration of 10^−6 M. As for the experimental part:
(§2) The in vitro inhibition of a panel of kinases was assessed using either the glass-fiber filter technology as described by Davies, S. P. et al., Biochem J. (2000), 351; p. 95-105. In the glass-fiber filter technology the activity of the kinase of interest is measured using an appropriate substrate that is incubated with the aforementioned kinase protein in the presence of (^33P) radiolabeled ATP. (^33P) Phosporylation of the substrate is subsequently measured as radioactivity bound on a glassfiber-filter.
(§3) All kinases are pre-diluted to a 10× working concentration prior to addition into the assay. The composition of the dilution buffer for each kinase is detailed below.
(§4) All substrates are dissolved and diluted to working stocks in de-ionised water, apart from histone H1 that is stored in 10× working stock in 20 mM MOPS pH 7.4.
(§5) In a final reaction volume of 25 μl, CDK1/cyclinB (h) (5-10 mU) is incubated with 8 mM MOPS pH 7.0, 0.2 mM EDTA, 0.1 mg/ml histone H1, 10 mM MgAcetate and [γ-^33P-ATP] (specific activity approx. 500 cpm/pmol, concentration as required). The reaction is initiated by the addition of the MgATP mix. After incubation for 40 minutes at room temperature, the reaction is stopped by the addition of 5 μl of a 3% phosphoric acid solution. 10 μl of the reaction is then spotted onto a P30 filtermat and washed three times for 5 minutes in 75 mM phosphoric acid and once in methanol prior to drying and scintillation counting.

In test [4] the target is CDK2/cyclinA (h) (Homo sapiens, UniProt P24941). The experiment in a line: Kinase profiling C3.3 CDK2/cyclinA human. To be noted: test concentration of 10^−6 M. As for the experimental part:
as §2, §3, §4
as §5, with “CDK2/cyclinA” for “CDK1/cyclinB”

Test [5] concerns the target CDK2/cyclinE (h) (Homo sapiens, UniProt P24941). As to the kind of experiment: Kinase profiling C3.4 CDK2/cyclinE human. To be noted: test concentration of 10^−6 M. As to the method: as §2, §3, §4
as §5, with “CDK2/cyclinE” for “CDK1/cyclinB”

Test [6] deals with CDK3/cyclinE (h) (Homo sapiens, UniProt Q00526). The experiment in a line: Kinase profiling C3.5 CDK3/cyclinE human. To be noted: test concentration of 10^−6 M. As to the method:
as §2, §3, §4
as §5, with “CDK3/cyclinE” for “CDK1/cyclinB”

Test [7] deals with CDK5/p35 human (Homo sapiens, UniProt Q00535). As to the kind of experiment: Kinase profiling C3.6 CDK5/p35 human. The following applies: CDK5/p35, test concentration of 10^−6 M. As to the method:
as §2, §3, §4
as §5, with “CDK5/p35 human” for “CDK1/cyclinB (h)”

The target in test [8] is CDK7/cyclinH/MAT1 (h) (Homo sapiens, UniProt P50613). The experiment in a line: Kinase profiling C3.8 CDK7/cyclinH/MAT1 human. The following applies: CDK7/cyclinH/MAT1, test concentration of 10^−6 M. As for the experimental part:
as §2, §3, §4
as §5, with “CDK7/cyclinH/MAT1” for “CDK1/cyclinB”, “500 μM peptide,” for “0.1 mg/ml histone H1,”

Sequence of GSK-3β (P49841 whole entry, species assumed): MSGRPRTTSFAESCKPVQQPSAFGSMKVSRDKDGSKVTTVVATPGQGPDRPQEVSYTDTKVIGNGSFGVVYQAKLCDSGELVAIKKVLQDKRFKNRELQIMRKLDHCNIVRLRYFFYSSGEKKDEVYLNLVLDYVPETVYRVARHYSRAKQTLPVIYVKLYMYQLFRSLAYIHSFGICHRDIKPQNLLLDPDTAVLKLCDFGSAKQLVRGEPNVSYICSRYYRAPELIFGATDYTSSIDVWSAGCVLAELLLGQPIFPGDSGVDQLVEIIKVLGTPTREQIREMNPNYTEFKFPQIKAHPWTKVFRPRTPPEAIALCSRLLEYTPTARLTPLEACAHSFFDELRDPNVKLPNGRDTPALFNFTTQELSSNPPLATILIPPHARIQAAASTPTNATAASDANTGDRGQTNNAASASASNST
Sequence of CDK1/cyclinB (h) (P06493 whole entry): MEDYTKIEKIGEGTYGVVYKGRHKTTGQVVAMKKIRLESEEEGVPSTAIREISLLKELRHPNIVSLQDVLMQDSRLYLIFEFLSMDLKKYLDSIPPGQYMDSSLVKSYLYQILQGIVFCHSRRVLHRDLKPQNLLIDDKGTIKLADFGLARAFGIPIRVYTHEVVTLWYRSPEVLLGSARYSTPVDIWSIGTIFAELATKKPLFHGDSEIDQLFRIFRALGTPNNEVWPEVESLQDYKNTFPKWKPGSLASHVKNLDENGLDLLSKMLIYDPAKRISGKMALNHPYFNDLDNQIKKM
Sequence of CDK1/cyclinB (h) (P14635 whole entry partner): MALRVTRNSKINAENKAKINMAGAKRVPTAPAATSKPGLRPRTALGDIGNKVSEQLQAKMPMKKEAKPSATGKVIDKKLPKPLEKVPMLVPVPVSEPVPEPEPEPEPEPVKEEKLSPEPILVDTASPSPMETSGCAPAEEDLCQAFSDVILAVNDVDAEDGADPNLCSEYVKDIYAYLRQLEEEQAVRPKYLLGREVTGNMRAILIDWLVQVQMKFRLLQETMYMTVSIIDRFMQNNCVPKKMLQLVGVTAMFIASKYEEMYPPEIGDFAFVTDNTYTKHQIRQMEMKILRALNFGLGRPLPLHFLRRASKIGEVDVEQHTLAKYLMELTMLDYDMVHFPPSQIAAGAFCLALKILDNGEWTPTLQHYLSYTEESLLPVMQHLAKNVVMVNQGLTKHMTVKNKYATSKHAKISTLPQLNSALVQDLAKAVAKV
Sequence of CDK7/cyclinH/MAT1 (h) (P50613 whole entry): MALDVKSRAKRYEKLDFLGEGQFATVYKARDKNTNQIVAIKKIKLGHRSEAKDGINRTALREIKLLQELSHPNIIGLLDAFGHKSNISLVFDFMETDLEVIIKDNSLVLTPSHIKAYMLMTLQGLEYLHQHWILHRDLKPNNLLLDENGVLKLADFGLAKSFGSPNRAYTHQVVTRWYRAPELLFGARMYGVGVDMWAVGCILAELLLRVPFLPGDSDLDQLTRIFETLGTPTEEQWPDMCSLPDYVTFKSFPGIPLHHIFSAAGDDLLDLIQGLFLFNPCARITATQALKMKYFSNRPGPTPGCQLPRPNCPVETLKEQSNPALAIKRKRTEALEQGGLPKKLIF
Sequence of CDK7/cyclinH/MAT1 (h) (P51946 whole entry partner): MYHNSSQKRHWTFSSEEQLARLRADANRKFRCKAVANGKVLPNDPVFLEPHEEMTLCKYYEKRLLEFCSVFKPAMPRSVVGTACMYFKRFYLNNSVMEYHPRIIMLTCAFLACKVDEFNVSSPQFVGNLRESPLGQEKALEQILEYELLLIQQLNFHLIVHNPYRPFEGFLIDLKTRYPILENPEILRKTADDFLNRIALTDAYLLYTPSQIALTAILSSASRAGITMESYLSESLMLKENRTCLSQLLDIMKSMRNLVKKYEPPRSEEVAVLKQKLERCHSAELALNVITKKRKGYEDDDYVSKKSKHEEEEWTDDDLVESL
Sequence of CDK7/cyclinH/MAT1 (h) (P51948 whole entry partner): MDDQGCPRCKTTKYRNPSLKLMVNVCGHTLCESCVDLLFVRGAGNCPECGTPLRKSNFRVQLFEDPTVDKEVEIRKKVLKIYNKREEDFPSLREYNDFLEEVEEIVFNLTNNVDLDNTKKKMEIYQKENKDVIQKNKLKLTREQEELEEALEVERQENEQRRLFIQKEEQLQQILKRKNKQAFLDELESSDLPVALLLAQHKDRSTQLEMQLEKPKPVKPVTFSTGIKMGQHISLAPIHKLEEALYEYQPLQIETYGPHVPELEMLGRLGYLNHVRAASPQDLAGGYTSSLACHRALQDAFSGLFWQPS
Sequence of CDK5/p35 human (Q00535 whole entry): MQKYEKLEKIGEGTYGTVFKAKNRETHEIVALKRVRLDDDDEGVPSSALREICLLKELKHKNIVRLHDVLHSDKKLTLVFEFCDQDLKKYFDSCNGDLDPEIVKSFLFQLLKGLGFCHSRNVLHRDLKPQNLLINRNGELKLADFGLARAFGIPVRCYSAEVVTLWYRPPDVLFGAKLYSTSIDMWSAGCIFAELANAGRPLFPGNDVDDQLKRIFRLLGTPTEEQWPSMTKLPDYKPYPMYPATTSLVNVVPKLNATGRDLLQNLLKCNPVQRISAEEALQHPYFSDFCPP
Sequence of CDK5/p35 human (Q15078 whole entry partner): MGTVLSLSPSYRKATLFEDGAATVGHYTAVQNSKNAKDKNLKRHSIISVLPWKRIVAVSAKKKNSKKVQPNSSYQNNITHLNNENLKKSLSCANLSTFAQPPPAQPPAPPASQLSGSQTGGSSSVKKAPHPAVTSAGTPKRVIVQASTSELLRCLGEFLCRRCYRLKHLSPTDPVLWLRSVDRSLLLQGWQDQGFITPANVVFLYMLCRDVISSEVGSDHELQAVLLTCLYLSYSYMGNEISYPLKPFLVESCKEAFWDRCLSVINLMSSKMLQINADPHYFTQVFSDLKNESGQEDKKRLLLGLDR

As to `CN1CC(=O)NCCOc2cccc(c2)Nc2ncnc(n2)-c2ccnc(c2)C1` [Compound 76], the IC50 in test [1] is < 10 nM.

As for `O=C1CCN2CCN(CCCc3cc(ccn3)-c3ncnc(n3)Nc3cccc(c3)CCN1)CC2` [Compound 29], the IC50 in test [1] and in test [2] was 10 to 100 nM each time.

For the compound `O=C1CNCc2cccc(c2)Nc2ncnc(n2)-c2cccc(c2)CCCN1` [Compound 42], the IC50 in test [1] fell in the range of 100 to 1000 nM.

As for `O=C1CCN2CCN(CC2)Cc2cccc(c2)Nc2ncnc(n2)-c2cccc(c2)CCCN1` [Compound 57], the IC50 in test [1] was 100 to 1000 nM.

Regarding `O=C1CCN2CCN(CC2)Cc2cccc(c2)Nc2ncnc(n2)-c2cccc(c2)NCCN1` [Compound 60], the IC50 in test [1] lay within 100 to 1000 nM.

In the case of `C[C@H]1NCc2cccc(c2)Nc2ncnc(n2)-c2cccc(c2)CCCNC1=O` [Compound 47], the IC50 in test [1] is 10 to 100 nM.

For `O=C1NCCCc2cccc(c2)-c2ncnc(n2)Nc2cccc(c2)CN2CCC[C@@H]12` [Compound 56], the IC50 in test [1] lay in the range of 100 to 1000 nM.

Take `O=C1NCCCc2cccc(c2)-c2ncnc(n2)Nc2cccc(c2)CN2CCC1CC2` [Compound 51]: the IC50 in test [1] lay in the range of 10 to 100 nM.

Consider `O=C1NCCCc2cccc(c2)-c2ncnc(n2)Nc2cccc(c2)CN[C@H]1Cc1ccccc1` [Compound 45], for which the IC50 in test [1] lay within 10 to 100 nM.

For the compound `CN1CC(=O)NCCNc2cccc(c2)-c2ncnc(n2)Nc2cccc(c2)C1` [Compound 43], the IC50 in test [1] is 100 to 1000 nM; in test [2], 10 to 100 nM.

For `C=CCN1CC(=O)NCCNc2ncccc2-c2ncnc(n2)Nc2cccc(c2)C1` [Compound 79], the IC50 in test [1] lay within 100 to 1000 nM.

Regarding `C[C@@H]1NCc2cccc(c2)Nc2ncnc(n2)-c2cccc(c2)NCCNC1=O` [Compound 63], the IC50 in test [1] fell in the range of 100 to 1000 nM.

Consider `CN1CCC(=O)NCCCc2cccc(c2)-c2ncnc(n2)Nc2cccc(c2)C1` [Compound 49], for which the IC50 in test [1] fell in the range of 10 to 100 nM.

`O=C1COc2cccc(c2)Nc2ncnc(n2)-c2ccnc(c2)CCCN2CCN1CC2` [Compound 78]: the IC50 in test [1] fell in the range of 10 to 100 nM.

With `CN1CC(=O)N2CCN(CCc3cc(ccn3)-c3ncnc(n3)Nc3cccc(c3)C1)CC2` [Compound 77], the IC50 in test [1] was 100 to 1000 nM.

Consider `CN1CCC(=O)NCCCCc2cc(ccn2)-c2ncnc(n2)Nc2cccc(c2)C1` [Compound 68], for which, in test [1], the IC50 was in the range of 100 to 1000 nM.

Turning to `O=C1NCCNc2cccc(c2)-c2ncnc(n2)Nc2cccc(c2)CN[C@H]1Cc1ccccc1` [Compound 64], the IC50 in test [1] fell in the range of 100 to 1000 nM.

In the case of `CN1CCCC(=O)NCCCc2cccc(c2)-c2ncnc(n2)Nc2cccc(c2)C1` [Compound 53], in test [1], the IC50 was 10 to 100 nM.

Take `O=C1COc2cccc(c2)Nc2ncnc(n2)-c2ccnc(c2)CCCN1` [Compound 74]: the IC50 in test [1] was in the range of 10 to 100 nM.

Consider `O=C1NCCNc2cccc(c2)-c2ncnc(n2)Nc2cccc(c2)CN2CCC1CC2` [Compound 62], for which, in test [1], the IC50 fell in the range of 100 to 1000 nM.

Take `O=C1NCCc2cccc(c2)Nc2ncnc(n2)-c2ccnc(c2)CCCN2CCCC12` (stereo not shown) [Compound 28]: the IC50 in test [1] is 100 to 1000 nM; in test [2], 10 to 100 nM.

As to `O=C1NCCCc2cc(ccn2)-c2ncnc(n2)Nc2cc(Cl)cc(c2)CN2CCCC1C2` (stereo not shown) [Compound 39], the IC50 fell in the range of 100 to 1000 nM in test [1] and 10 to 100 nM in test [2]. Also, in test [3], the C3.2 score is given as 2 (Score 2 = 30-60% inhibition). Besides, in test [4], the C3.3 score is listed as 3 (Score 3 = 60-80% inhibition). Also, the C3.4 score in test [5] is 3 (Score 3 = 60-80% inhibition). In test [6], the C3.5 score is given as 2 (Score 2 = 30-60% inhibition). Further, the C3.6 score in test [7] was 1 (Score 1 = 10-30% inhibition). Besides, the C3.8 score in test [8] is listed as 3 (Score 3 = 60-80% inhibition).

With `O=C1NCCCc2cccc(c2)-c2ncnc(n2)Nc2cccc(c2)CN2CCCC1C2` (stereo not shown) [Compound 55], the IC50 in test [1] is 10 to 100 nM.

On to `O=C1NCCOc2ccc(cc2)-c2ncnc(n2)Nc2cccc(c2)CN2CCC1CC2` [Compound 73], for which the IC50 in test [1] is 100 to 1000 nM.

Consider `C[C@@H]1NCc2cccc(c2)Nc2ncnc(n2)-c2cccc(c2)CCCNC1=O` [Compound 44], for which, in test [1], the IC50 lay in the range of 100 to 1000 nM.

As for `O=C1NCCCc2cc(ccn2)-c2ncnc(n2)Nc2cc(Cl)cc(c2)CN2CCC[C@@H]12` [Compound 38], the IC50 in test [1] and in test [2] was 100 to 1000 nM throughout. The C3.2 score in test [3] is 4 (Score 4 = >80% inhibition). Also, the C3.3 score in test [4] is given as 4 (Score 4 = >80% inhibition). Besides, in test [5], the C3.4 score was 4 (Score 4 = >80% inhibition). The C3.5 score in test [6] is reported as 3 (Score 3 = 60-80% inhibition). Besides, the C3.6 score in test [7] is on record as 2 (Score 2 = 30-60% inhibition). Moreover, the C3.8 score in test [8] was 3 (Score 3 = 60-80% inhibition).

As to `O=C1NCCCc2cccc(c2)-c2ncnc(n2)Nc2cccc(c2)CN2C[C@@H](O)C[C@H]12` [Compound 50], the IC50 in test [1] was in the range of 10 to 100 nM.

Take `CC1(C)NCc2cccc(c2)Nc2ncnc(n2)-c2cccc(c2)CCCNC1=O` [Compound 48]: the IC50 in test [1] lay in the range of 100 to 1000 nM.

As for `C[C@H]1NCCCc2cccc(c2)-c2ncnc(n2)Nc2ccccc2CNC1=O` [Compound 80], the IC50 in test [1] is 100 to 1000 nM.

For the compound `O=C1NCCCc2cc(ccn2)-c2ncnc(n2)Nc2cccc(c2)CN2CCC1CC2` [Compound 16], the IC50 in test [1] and in test [2] was 10 to 100 nM throughout.

Take `O=C1NCCNc2cccc(c2)-c2ncnc(n2)Nc2cccc(c2)CN2CCCC1C2` (stereo not shown) [Compound 61]: in test [1], the IC50 lay in the range of 100 to 1000 nM.
